Assay: mn = molality of the nth substance listed, in mol/kg
Conditions: 298.15 K, 101 kPa, Liquid; for viscosity: Capillary tube (Ostwald / Ubbelohde) method; for speed of sound: Sing-around technique in a fixed-path interferometer; for mass density: Vibrating tube method

CCCCn1cc[n+](C)c1.[Cl-] [1-butyl-3-methylimidazolium chloride] + O
Conditions	mass density [kg/m3]	speed of sound [m/s]	viscosity [mPa·s]
m1 = 0.0123	997.21	1498.3	–
m1 = 0.01554	–	–	0.8981
m1 = 0.01952	–	–	0.9005
m1 = 0.02	997.31	1499.3	–
m1 = 0.0252	–	–	0.9024
m1 = 0.0279	997.41	1500.3	–
m1 = 0.0349	997.5	1501.2	–
m1 = 0.03495	–	–	0.9062
m1 = 0.0404	997.57	1501.9	–
m1 = 0.04454	–	–	0.9101
m1 = 0.05402	–	–	0.9143
m1 = 0.0624	997.85	1504.8	–
m1 = 0.06772	–	–	0.9197
m1 = 0.08128	–	–	0.9258
m1 = 0.09508	–	–	0.9323
m1 = 0.107	998.41	1510.6	–
m1 = 0.1132	–	–	0.9412
m1 = 0.1175	998.54	1512	–
m1 = 0.1296	998.69	1513.5	–
m1 = 0.1521	998.97	1516.5	–
m1 = 0.1677	999.16	1518.6	–
m1 = 0.1852	999.38	1520.9	–
m1 = 0.2113	999.7	1524.3	–
m1 = 0.236	1000.01	1527.6	–
m1 = 0.2591	1000.29	1530.7	–
m1 = 0.2718	1000.45	1532.4	–

CCCCn1cc[n+](C)c1.COS(=O)(=O)[O-] [1-butyl-3-methylimidazolium methyl sulfate] + O
Conditions	mass density [kg/m3]	speed of sound [m/s]	viscosity [mPa·s]
m1 = 0.00791	–	–	0.8954
m1 = 0.0096	997.41	1498	–
m1 = 0.01626	–	–	0.8999
m1 = 0.02449	–	–	0.9046
m1 = 0.0289	998.13	1500.5	–
m1 = 0.0329	–	–	0.9095
m1 = 0.0411	998.59	1502	–
m1 = 0.04142	–	–	0.9133
m1 = 0.0522	–	–	0.9182
m1 = 0.0584	999.23	1504.2	–
m1 = 0.06083	–	–	0.9236
m1 = 0.07206	–	–	0.9287
m1 = 0.0828	1000.11	1507.2	–
m1 = 0.08297	–	–	0.9354
m1 = 0.09627	–	–	0.9428
m1 = 0.1188	1001.49	1512	–
m1 = 0.1481	1002.58	1515.7	–
m1 = 0.1736	1003.51	1519	–
m1 = 0.2021	1004.58	1522.6	–
m1 = 0.2252	1005.44	1525.6	–

CCCCCCCCOS(=O)(=O)[O-].CCCCn1cc[n+](C)c1 [1-butyl-3-methylimidazolium octyl sulfate] + O
Conditions	mass density [kg/m3]	speed of sound [m/s]	viscosity [mPa·s]
m1 = 0.008	997.23	1498.5	–
m1 = 0.00921	–	–	0.9054
m1 = 0.0148	997.38	1500.1	–
m1 = 0.01899	–	–	0.9173
m1 = 0.0215	997.53	1501.6	–
m1 = 0.02803	–	–	0.9278
m1 = 0.0301	997.72	1503.6	–
m1 = 0.035	997.83	1504.7	–
m1 = 0.03646	–	–	0.9388
m1 = 0.0423	997.99	1506.2	–
m1 = 0.04596	–	–	0.9507
m1 = 0.0492	998.14	1506.9	–
m1 = 0.05551	–	–	0.9615
m1 = 0.06482	–	–	0.9748
m1 = 0.0668	998.52	1507.5	–
m1 = 0.07522	–	–	0.9873
m1 = 0.08499	–	–	0.9986
m1 = 0.0888	998.99	1508.1	–
m1 = 0.0981	–	–	1.015
m1 = 0.1542	1000.35	1509.5	–
m1 = 0.2466	1002.19	1511.6	–
m1 = 0.3369	1003.92	1513.9	–

CCCCn1cc[n+](C)c1.F[B-](F)(F)F [1-butyl-3-methylimidazolium tetrafluoroborate] + O
Conditions	mass density [kg/m3]	speed of sound [m/s]	viscosity [mPa·s]
m1 = 0.00382	–	–	0.8922
m1 = 0.01067	–	–	0.8943
m1 = 0.0151	997.61	1497.7	–
m1 = 0.02196	–	–	0.8986
m1 = 0.03489	–	–	0.9024
m1 = 0.0355	998.36	1499.1	–
m1 = 0.04696	–	–	0.9053
m1 = 0.05635	–	–	0.9095
m1 = 0.0662	–	–	0.9133
m1 = 0.07543	–	–	0.9162
m1 = 0.0764	999.85	1502	–
m1 = 0.08767	–	–	0.9198
m1 = 0.09802	–	–	0.9239
m1 = 0.1052	1000.89	1504	–
m1 = 0.1284	1001.72	1505.5	–
m1 = 0.1538	1002.64	1507.3	–
m1 = 0.1803	1003.58	1509.1	–
m1 = 0.2059	1004.49	1510.9	–
m1 = 0.2269	1005.22	1512.3	–
m1 = 0.2505	1006.06	1513.9	–

CCCCCCCC[n+]1ccn(C)c1.[Cl-] [1-methyl-3-octylimidazolium chloride] + O
Conditions	mass density [kg/m3]	speed of sound [m/s]	viscosity [mPa·s]
m1 = 0.0074	–	–	0.8986
m1 = 0.0127	997.14	1499.2	–
m1 = 0.01484	–	–	0.9052
m1 = 0.017	997.17	1500	–
m1 = 0.02425	–	–	0.9131
m1 = 0.0272	997.24	1502	–
m1 = 0.039	997.32	1504.4	–
m1 = 0.04255	–	–	0.9281
m1 = 0.0555	997.43	1507.5	–
m1 = 0.05607	–	–	0.9387
m1 = 0.06607	–	–	0.946
m1 = 0.0693	997.52	1510.1	–
m1 = 0.07893	–	–	0.956
m1 = 0.0892	997.65	1513.8	–
m1 = 0.0928	–	–	0.968
m1 = 0.1002	997.72	1515.7	–
m1 = 0.1061	–	–	0.9779
m1 = 0.1179	997.83	1518.5	–
m1 = 0.1353	997.94	1521.5	–
m1 = 0.1679	998.14	1526.8	–
m1 = 0.183	998.23	1529.5	–
m1 = 0.1948	998.3	1531.3	–

CCCCCCCC[n+]1ccn(C)c1.F[B-](F)(F)F [1-methyl-3-octylimidazolium tetrafluoroborate] + O
Conditions	mass density [kg/m3]	speed of sound [m/s]	viscosity [mPa·s]
m1 = 0.00225	–	–	0.8929
m1 = 0.0045	997.19	1497.4	–
m1 = 0.0058	997.23	1497.5	–
m1 = 0.0077	997.29	1497.8	–
m1 = 0.00773	–	–	0.8974
m1 = 0.01093	–	–	0.8997
m1 = 0.0112	997.4	1498.3	–
m1 = 0.01518	–	–	0.9029
m1 = 0.017	997.58	1499	–
m1 = 0.01948	–	–	0.9059
m1 = 0.0196	997.66	1499.4	–
m1 = 0.0235	997.78	1499.9	–
m1 = 0.02476	–	–	0.9094
m1 = 0.0264	997.87	1500.3	–
m1 = 0.0311	–	–	0.914
m1 = 0.0369	998.19	1501.7	–
m1 = 0.03923	–	–	0.9201
m1 = 0.0428	998.37	1502.5	–
m1 = 0.0454	998.45	1502.9	–
m1 = 0.04705	–	–	0.9255

— the NIST ThermoML archive (doi:10.1016/j.jct.2011.01.013)
